# US9000016B2, “1,3,4-Oxadiazoles-2-thio derivatives as sphingosine-1 phosphate receptors modulators” (Allergan, Inc., priority 2012, dated 2015)
# Target: T1, human S1P1 receptor (Homo sapiens, UniProt P21453)
# T1 construct: expressed in transfected cells; membranes used
# Experiment: GTP γ35S binding assay for S1P1 activity
# Assay type: biochemical
# Settings: membranes of cells stably expressing the S1P1 receptor, agonist potency
# Description: Compounds were synthesized and tested for S1P1 activity using the GTP γ^35S binding assay. These compounds may be assessed for their ability to activate or block activation of the human S1P1 receptor in cells stably expressing the S1P1 receptor.
# GTP y^35S binding was measured in the medium containing (mM) HEPES 25, pH 7.4, MgCl210, NaCI 100, dithiothreitol 0.5, digitonin 0.003%, 0.2 nM GTP y^35S, and 5 µg membrane protein in a volume of 150 μl. Test compounds were included in the concentration range from 0.08 to 5,000 nM unless indicated otherwise. Membranes were incubated with 100 μM 5′-adenylylimidodiphosphate for 30 min, and subsequently with 10 μM GDP for 10 min on ice. Drug solutions and membrane were mixed, and then reactions were initiated by adding GTP y^35S and continued for 30 min at 25° C. Reaction mixtures were filtered over Whatman GF/B filters under vacuum, and washed three times with 3 mL of ice-cold buffer (HEPES 25, pH7.4, MgCl210 and NaCI 100). Filters were dried and mixed with scintillant, and counted for ^35S activity using a β-counter. Agonist-induced GTP y^35S binding was obtained by subtracting that in the absence of agonist. Binding data were analyzed using a non-linear regression method. In case of antagonist assay, the reaction mixture contained 10 nM S1 P1 in the presence of test antagonist at concentrations ranging from 0.08 to 5000 nM.
# T1 sequence (P21453 whole entry): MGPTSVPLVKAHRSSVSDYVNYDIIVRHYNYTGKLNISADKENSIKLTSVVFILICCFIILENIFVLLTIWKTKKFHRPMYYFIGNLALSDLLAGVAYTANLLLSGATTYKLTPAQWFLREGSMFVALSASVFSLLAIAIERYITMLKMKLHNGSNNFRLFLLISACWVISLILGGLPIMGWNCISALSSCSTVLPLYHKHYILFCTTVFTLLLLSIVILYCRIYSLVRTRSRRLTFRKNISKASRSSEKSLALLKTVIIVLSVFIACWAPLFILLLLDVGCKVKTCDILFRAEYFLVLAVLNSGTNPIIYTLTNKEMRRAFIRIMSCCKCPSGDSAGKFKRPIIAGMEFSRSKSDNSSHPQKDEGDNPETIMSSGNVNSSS
row,EC50 [nM],SMILES
1,8.4,"Cc1ccc(-c2nnc(SC(C)c3ccc(CNCCC(=O)O)cc3)o2)cc1C (centres unmarked) [Compound 3, 3-{[4-(1-{[5-(3,4-Dimethylphenyl)-1,3,4-oxadiazol-2-yl]thio}ethyl)benzyl]amino}propanoic acid]"
2,82,"Cc1ccc(-c2nnc(SC(C)c3ccc(CNCCCP(=O)(O)O)cc3)o2)cc1C (centres unmarked) [Compound 1, (3-{[4-(1-{[5-(3,4-Dimethylphenyl)-1,3,4-oxadiazol-2-yl]thio}ethyl)benzyl]amino}propyl)phosphonic acid]"
